# Test: absorption of moisturizing composition by the skin
# Format: in vivo
# Settings: replacing 20% by weight of the avocado oil or apricot kernel oil in moisturizing compositions
# Text: The triglyceride quaternary ammonium compounds of formula I in which R is C16 -C20 alkyl are valuable additives to a range of cosmetic and toiletry compositions. They are particularly useful in moisturizing compositions containing natural triglycerides which are not easily absorbed by the skin. Examples of such natural triglycerides are avocado oil and apricot kernel oil which are the major natural triglyceride oil components of certain commercially available moisturizing lotions and creams.
smiles,measurement,value
"CCCCCCCCCCCCCCCCCC[N+](C)(C)CC(=O)OC(CC=CCCCCCCCC(=O)OCC(COC(=O)CCCCCCCC=CCC(CCCCCC)OC(=O)C[N+](C)(C)CCCCCCCCCCCCCCCCCC)OC(=O)CCCCCCCC=CCC(CCCCCC)OC(=O)C[N+](C)(C)CCCCCCCCCCCCCCCCCC)CCCCCC (stereo not shown) [Example 1, propane-1,2,3-tri[octadec-9-en-12-(oxycarbonyl-N-methylene-N,N-dimethyl-N-octadecylammonium chloride)oate]]",improvement in the absorption of the composition by the skin,significant improvement

# Source: US4857310A, “Triglyceride quaternary ammonium compounds, their preparation and use” (The Gillette Company, priority 1987, dated 1989)
